Test results reported in patent US7754701B2, “Difructose anhydride-containing composition and use thereof” (Fancl Corporation, priority 2002, dated 2010).
Values joined by “and” are separate entries in the source; they are usually repeats but may differ in a detail not shown here. Equal entries are not always repeated.

Key:
[1] = Diuretic test using DFA III; format: in vivo, human
From the text: DFA III was made into granules to make a granular food product. Since granulation was possible without excipient, the DFA content was 100%. Six healthy males were given with 1 g/day of this granular food product together with water consecutively for 1 week in the first period of the test. Then, after a week of the washout period, the same 6 healthy subjects were given with 1 g/day of sugar together with water consecutively for 1 week in the second period of the test.
During the test periods, all subjects lived under the same environment, doing the same level of exercise and taking the same amount of diet and drinking water. The whole volume of urine excreted during the test periods was recovered and the volume was measured to obtain a daily average urine volume to compare the two test periods.

[2] = system: Streptococcus mutans MT 8148; assay: Acid production by Streptococcus mutans (Example 9), strain MT 8148; format: cell-based; conditions: 10 ml of 5% solution added to 2 ml cell suspension, 37° C., FIG. 6
Description: (§1) Dental caries causative bacteria (Streptococcus mutans) MT 8148 and 6715 strains provided by a microbial lineage storage laboratory of The Institute of Physical Chemical Research (Riken) were cultured on a brain heart infusion broth medium overnight and then cells were collected by centrifugation. The cells were washed twice with a phosphate buffered (5 mM) physiological saline solution (pH 7.0) and then suspended in the same saline solution. Ten milliliters each of 5% DFA III, sorbitol, palatinose, xylitol, and sucrose solutions were added to 2 ml of this concentrated cell suspension. Immediately, reaction was carried out at 37° C. and then change with time in pH of each reaction mixture was measured.

[3] = system: Streptococcus mutans MT 8148; assay: Acid production by Streptococcus mutans, DFA and palatinose (Example 10), strain MT 8148; format: cell-based; conditions: 10 ml of 1% solution added to 2 ml cell suspension, 37° C., FIG. 7
Description: as §1, with “a 1% palatinose solution, 1%” for “5%”, “a 1% palatinose solution with 1% DFA III added” for “sorbitol, palatinose, xylitol, and sucrose solutions”

[4] = system: small intestines (jejunum and ileum) and large intestines (cecum and colon) mucous membrane specimen; assay: Zinc absorption in Ussing chamber; set-up: species or system rat; conditions: DFA III 0 to 100 mM, FIG. 2
[5] = system: mice; assay: Acute toxicity test in mice; format: in vivo; conditions: 10 days, 1000 mg/kg of oral administration
From the text: Further, DFA, an effective component of the invention, has no problem in its safety.

[6] = system: small intestines (jejunum and ileum) and large intestines (cecum and colon) mucous membrane specimen; assay: Magnesium absorption in Ussing chamber; set-up: species or system rat; conditions: DFA III 0, 1, 10, 100 mM on mucous membrane side, 37° C., 30 minutes, FIG. 1
Description: Acceleration of magnesium absorption by DFA III was confirmed by using an Ussing chamber as follows.
In this experiment, 7 to 8 weeks old Sprague-Dawley male rats (with an average body weight of about 260 g) were used.
The rats were purchased at 6 weeks of age (Japan SLC) and fed on a commercial solid feed (CE-2, Japan CLEA) until the start of the experiment.
On the day of the experiment, rats were injected intraperitoneally with sodium pentobarbital and the small intestines (cejunum and ileum) and the large intestines (cecum and colon) were extracted under the anaesthetization. Contents of each of the intestines were removed, the intestines were opened, and the serous membrane and the layer of smooth muscle were peeled off to prepare a specimen comprising the mucous membrane and submucosal tissue, which was then loaded onto an Ussing chamber (with an effective area of 0.67 cm^2).
Separately, a buffer solution for the mucous membrane side and a buffer solution for serous membrane side were prepared. The buffer solution for mucous membrane side was basically comprised of the following ingredients. […]
After the incubation was completed, the solution of serous membrane side was recovered and the Mg concentration in the solution was measured using a commercial kit (Wako Pure Chemicals). […]

[7] = system: serum osteocalcin; assay: Bone formation in human: serum osteocalcin, DFA III with calcium lactate (Example 4); format: in vivo; conditions: 3 g DFA III and 0.77 g calcium lactate 3 times a day for 1 week vs calcium lactate alone; six healthy adult males; FIG. 4
Description: Six healthy adult males were administered with 3 g of DFA III and 0.77 g of calcium lactate or 0.77 g of placebo (calcium lactate) 3 times a day for 1 week to study the change in serum osteocalcin concentration.

[8] = Effectiveness on defecation in human; format: in vivo; conditions: 3 g once a day for one month; for Feeling of defecation: Much better (number of subjects) / Feeling of defecation: No change (number of subjects) / Feeling of defecation: Slightly better (number of subjects) / Feeling of defecation: Slightly worse (number of subjects) / Feeling of defecation: Worse (number of subjects) / Stool properties, change observed: Constipation (worse after ingestion; number of subjects) / Stool properties, change observed: Normal stool (number of subjects) / Stool properties, change observed: Soft stool (number of subjects) / Stool properties, change observed: Solid stool (number of subjects) / Stool properties: No change (number of subjects): fifty adults; for Stool properties, change observed: Diarrhea (number of subjects): fifty adults with tendency of constipation
Description: Fifty adults who were healthy but aware of their poor stool frequency and tendency of constipation were given with 3 g of DFA III, 3 g of melibiose or 3 g of placebo (starch) once a day for one month. The defecation condition was recorded and stool properties and feeling of defecation were studied.

[9] = system: small intestines (jejunum and ileum) and large intestines (cecum and colon) mucous membrane specimen; assay: Copper absorption in Ussing chamber; set-up: species or system rat; conditions: DFA III 0 to 100 mM, FIG. 3
[10] = system: serum osteocalcin; assay: Bone formation in human: serum osteocalcin, DFA III alone (Example 6); format: in vivo; conditions: 3 g DFA III 3 times a day for 2 weeks
Description: Twenty-three healthy adult males and females on normal diet were administered with 3 g of DFA III 3 times a day for 2 weeks to study the change in serum osteocalcin concentration.

[11] = system: serum osteocalcin; assay: Bone formation in human: serum osteocalcin, DFA III with calcium carbonate (Example 5); format: in vivo; conditions: 1 g DFA III and 0.25 g calcium carbonate 3 times a day for 2 weeks vs calcium carbonate alone; fourteen healthy adult males; FIG. 5
Description: Fourteen healthy adult males were administered with 1 g of DFA III and 0.25 g of calcium carbonate or 0.25 g of placebo (calcium carbonate) 3 times a day for 2 weeks to study the change in serum osteocalcin concentration.

## OC[C@H]1O[C@@](CO)(O[C@H]2O[C@H](CO)[C@@H](O)[C@H](O)[C@H]2O)[C@@H](O)[C@@H]1O [sugar, reference compound]
[1]; 1 g/day sugar with water for 1 week after 1 week washout, same subjects A-F
  Average daily urine volume: 1620 mL and 1760 mL and 1650 mL and 1250 mL and 1850 mL and 1520 mL

## OC[C@@H](O)[C@@H](O)[C@H](O)[C@@H](O)CO [sorbitol]
[2]
  acid production (change with time in pH of reaction mixture): almost no acid

## OC[C@H]1O[C@H](OC[C@H]2OC(O)(CO)[C@@H](O)[C@@H]2O)[C@H](O)[C@@H](O)[C@@H]1O (stereo partly shown) [palatinose, reference compound]
[2]
  acid production (change with time in pH of reaction mixture): almost no acid
[3]
  acid production (change with time in pH of reaction mixture): acid was produced

## OC[C@H]1O[C@@](CO)(O[C@H]2O[C@H](CO)[C@@H](O)[C@H](O)[C@H]2O)[C@@H](O)[C@@H]1O [sucrose]
[2]
  acid production (change with time in pH of reaction mixture): evidently lowered the pH

## OC[C@H]1O[C@@]2(CO[C@]3(CO)O[C@H](CO)[C@@H](O)[C@@H]3O2)[C@@H](O)[C@@H]1O [DFA III, difructose anhydride III]
[4]
  Zn absorption (net rate, mucous to serous membrane side): evidently increased
[5]
  acute toxicity (death): no death
[6]
  Mg absorption (net rate, mucous to serous membrane side): evidently increased
[7]
  level of osteocalcin (serum), change: increased more
[8]
  Feeling of defecation: Much better (number of subjects): 23
  Feeling of defecation: No change (number of subjects): 0
  Feeling of defecation: Slightly better (number of subjects): 27
  Feeling of defecation: Slightly worse (number of subjects): 0
  Feeling of defecation: Worse (number of subjects): 0
  Stool properties, change observed: Constipation (worse after ingestion; number of subjects): 0
  Stool properties, change observed: Normal stool (number of subjects): 39
  Stool properties, change observed: Soft stool (number of subjects): 7
  Stool properties, change observed: Solid stool (number of subjects): 3
  Stool properties: No change (number of subjects): 0
  Stool properties, change observed: Diarrhea (number of subjects): 0
[1]; 1 g/day DFA III granular food product with water for 1 week, individual subjects A-F, healthy males
  Average daily urine volume: 2600 mL and 2950 mL and 2560 mL and 2850 mL and 3010 mL and 2050 mL
[1]; 1 g/day for 1 week
  abnormal subjective findings: no abnormal subjective findings
[1]; all individual subjects, DFA III 1 g/day vs sugar 1 g/day
  average daily urine volume, first vs second test period: evidently greater
[1]; first test period (DFA III) vs second test period (sugar)
  biochemical blood tests (liver function, renal function, blood pressure, blood cell counts, total Chol, TG): the same
[2]
  acid production (change with time in pH of reaction mixture): almost no acid
[9]
  Cu absorption (net rate, mucous to serous membrane side): evidently increased
[10]; no added calcium
  level of osteocalcin, change by ingestion: increased
[10]; 23 healthy adults on normal diet, Average ± SD
  Serum osteocalcin concentration, After ingestion: 5.7 ± 1.5 ng/mL
[10]; 23 healthy adults on normal diet, Average ± SD, *p < 0.1
  Serum osteocalcin concentration, Before ingestion: 7.0 ± 2.0* ng/ml
[11]
  level of osteocalcin (serum), change: increased more
[3]
  acid production (change with time in pH of reaction mixture): almost no acid was produced

## OC[C@@H](O)[C@H](O)[C@@H](O)CO [xylitol]
[2]
  acid production (change with time in pH of reaction mixture): almost no acid

## OC[C@H]1O[C@H](OCC2O[C@@H](O)[C@H](O)[C@@H](O)[C@@H]2O)[C@H](O)[C@@H](O)[C@H]1O (stereo partly shown) [melibiose]
[8]
  Feeling of defecation: Much better (number of subjects): 22
  Feeling of defecation: No change (number of subjects): 0
  Feeling of defecation: Slightly better (number of subjects): 28
  Feeling of defecation: Slightly worse (number of subjects): 0
  Feeling of defecation: Worse (number of subjects): 0
  Stool properties, change observed: Constipation (worse after ingestion; number of subjects): 0
  Stool properties, change observed: Normal stool (number of subjects): 40
  Stool properties, change observed: Soft stool (number of subjects): 8
  Stool properties, change observed: Solid stool (number of subjects): 2
  Stool properties: No change (number of subjects): 0
  Stool properties, change observed: Diarrhea (number of subjects): 0
